Read-outs that look alike come from different tables or passages of the source.
Legend:
human MRP2 = biological target: T1, human MRP2 (Homo sapiens, UniProt Q92887); experiment: biochemical; type: biochemical; settings: CDCF 5 μM
T1 construct: made in house; host or cells: Sf9 insect cells (baculovirus)
Protocol: Experiments were performed in insect membrane vesicles, as described previously. Briefly, human MDR1, BCRP, and MRP2 were expressed in Sf9 insect cells by baculoviruses. On the third day of infection, cells were collected and membrane vesicles were obtained by mechanical disruption and differential centrifugation. To get full activity for BCRP, the cholesterol levels of the vesicles were adjusted to the level of mammalian membranes. Vesicles were stored at −80 °C, and the total protein content of the preparations was measured by the Lowry method (used as a reference for the quantity). […] A 100 μL volume of fluorescence stabilizer was added to the samples (DMSO for LY, 0.1 M H2SO4 for NMQ, and 0.1 M NaOH for CDCF). Fluorescence of samples was measured by plate readers (Victor X3 and Enspire PerkinElmer; Waltham, MA) at appropriate wavelengths (filters in the Victor X3 reader were 405/535 nm for LY and 492/635 nm for CDCF; while in the Enspire reader, NMQ was measured at 360/430 nm excitation/emission wavelengths). ABC-related transport was calculated by subtracting passive uptake measured without Mg-ATP from values measured in the presence of Mg-ATP.

OATP1A2 [1] = biological target: T2, OATP1A2 (Homo sapiens, UniProt P46721); experiment: OATP1A2-mediated SR101 uptake in overexpressing A431 cells; type: cell-based
T2 construct: expressed in transfected cells; host or cells: A431
T2 sequence (P46721 1-670): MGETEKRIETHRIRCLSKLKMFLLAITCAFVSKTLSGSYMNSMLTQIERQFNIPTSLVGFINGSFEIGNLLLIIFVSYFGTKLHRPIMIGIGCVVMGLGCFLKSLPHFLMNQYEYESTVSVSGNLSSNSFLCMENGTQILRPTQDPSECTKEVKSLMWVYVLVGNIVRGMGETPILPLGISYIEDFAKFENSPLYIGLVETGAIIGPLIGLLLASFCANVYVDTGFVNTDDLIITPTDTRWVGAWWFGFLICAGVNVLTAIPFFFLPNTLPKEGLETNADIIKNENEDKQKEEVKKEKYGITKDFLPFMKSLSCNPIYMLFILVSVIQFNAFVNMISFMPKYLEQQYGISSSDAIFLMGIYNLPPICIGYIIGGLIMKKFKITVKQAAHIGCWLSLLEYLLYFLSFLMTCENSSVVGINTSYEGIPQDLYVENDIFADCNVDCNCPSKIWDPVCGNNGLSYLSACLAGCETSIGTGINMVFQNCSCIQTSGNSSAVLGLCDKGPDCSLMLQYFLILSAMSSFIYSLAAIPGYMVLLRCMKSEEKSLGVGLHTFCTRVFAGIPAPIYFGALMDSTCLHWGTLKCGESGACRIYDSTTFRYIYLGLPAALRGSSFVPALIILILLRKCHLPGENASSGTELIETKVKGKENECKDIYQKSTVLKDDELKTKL
Protocol: The human epidermoid carcinoma cell (A431) overexpressing OATP1A2, OATP1B1, OATP1B3, or OATP2B1 transporters and their mock control cells were generated previously as described. , Cell culture was maintained in DMEM supplemented with 10% fetal bovine serum, 2 mM L-glutamine, 100 units/mL penicillin, and 100 μg/mL streptomycin at 37 °C and 5% CO2.
The inhibitory effects of mycotoxins (Z14S and Z14GA) were examined using indirect fluorescence assays, where pyranine and SR101 were used as fluorescent substrates. , A431 cells overexpressing OATP1A2, OATP1B1/3, or OATP2B1 and their mock-transfected controls were seeded at a density of 8 × 10^4 cells/well onto 96-well plates and incubated for 18–22 h prior to transport measurements. The next day, plated cells were washed three times with 200 μL of PBS (phosphate-buffered saline, pH 7.4) and preincubated with 50 μL of transport buffer (pH 5.5; 125 mM NaCl, 4.8 mM KCl, 1.2 mM CaCl2, 1.2 mM KH2PO4, 12 mM MgSO4, 25 mM MES, and 5.6 mM glucose) with or without increasing concentrations of the mycotoxins tested (0.001–20 μM) for 5 min at 37 °C. The transport inhibition measurements were initiated by adding 50 μL of transport buffer containing the proper fluorescent substrate SR101 (0.5 μM, OATP1A2) or pyranine (10 μM for OATP1B1 or 20 μM for OATP1B3 and OATP2B1). After 10 min (OATP1A2), 15 min (OATP1B1 and OATP2B1), or 30 min (OATP1B3) incubation, the transport was terminated by washing the cells three times with ice-cold PBS. […] Using an Enspire plate reader (PerkinElmer, Waltham, MA), the fluorescence was measured at excitation/emission wavelengths of 460/510 nm (pyranine) or 586/605 nm (SR101).
OATP-mediated transport was obtained by subtracting the activity of the mock control cells from the activity of the OATP-expressing cells. The transport activity (%) of the OATPs was calculated by comparing the fluorescence signal obtained in the absence of the compounds tested (set to 100%).

CYP3A4 = biological target: T3, CYP3A4 (Homo sapiens, UniProt P08684); design: method as in our previous study; settings: ref our previous study; cited from earlier work
T3 construct: purchased Merck

OATP1A2 [2] = biological target: T2, OATP1A2; design: method as in earlier report; settings: same experimental model; ref earlier report; cited from earlier work

T1 sequence (Q92887 whole entry): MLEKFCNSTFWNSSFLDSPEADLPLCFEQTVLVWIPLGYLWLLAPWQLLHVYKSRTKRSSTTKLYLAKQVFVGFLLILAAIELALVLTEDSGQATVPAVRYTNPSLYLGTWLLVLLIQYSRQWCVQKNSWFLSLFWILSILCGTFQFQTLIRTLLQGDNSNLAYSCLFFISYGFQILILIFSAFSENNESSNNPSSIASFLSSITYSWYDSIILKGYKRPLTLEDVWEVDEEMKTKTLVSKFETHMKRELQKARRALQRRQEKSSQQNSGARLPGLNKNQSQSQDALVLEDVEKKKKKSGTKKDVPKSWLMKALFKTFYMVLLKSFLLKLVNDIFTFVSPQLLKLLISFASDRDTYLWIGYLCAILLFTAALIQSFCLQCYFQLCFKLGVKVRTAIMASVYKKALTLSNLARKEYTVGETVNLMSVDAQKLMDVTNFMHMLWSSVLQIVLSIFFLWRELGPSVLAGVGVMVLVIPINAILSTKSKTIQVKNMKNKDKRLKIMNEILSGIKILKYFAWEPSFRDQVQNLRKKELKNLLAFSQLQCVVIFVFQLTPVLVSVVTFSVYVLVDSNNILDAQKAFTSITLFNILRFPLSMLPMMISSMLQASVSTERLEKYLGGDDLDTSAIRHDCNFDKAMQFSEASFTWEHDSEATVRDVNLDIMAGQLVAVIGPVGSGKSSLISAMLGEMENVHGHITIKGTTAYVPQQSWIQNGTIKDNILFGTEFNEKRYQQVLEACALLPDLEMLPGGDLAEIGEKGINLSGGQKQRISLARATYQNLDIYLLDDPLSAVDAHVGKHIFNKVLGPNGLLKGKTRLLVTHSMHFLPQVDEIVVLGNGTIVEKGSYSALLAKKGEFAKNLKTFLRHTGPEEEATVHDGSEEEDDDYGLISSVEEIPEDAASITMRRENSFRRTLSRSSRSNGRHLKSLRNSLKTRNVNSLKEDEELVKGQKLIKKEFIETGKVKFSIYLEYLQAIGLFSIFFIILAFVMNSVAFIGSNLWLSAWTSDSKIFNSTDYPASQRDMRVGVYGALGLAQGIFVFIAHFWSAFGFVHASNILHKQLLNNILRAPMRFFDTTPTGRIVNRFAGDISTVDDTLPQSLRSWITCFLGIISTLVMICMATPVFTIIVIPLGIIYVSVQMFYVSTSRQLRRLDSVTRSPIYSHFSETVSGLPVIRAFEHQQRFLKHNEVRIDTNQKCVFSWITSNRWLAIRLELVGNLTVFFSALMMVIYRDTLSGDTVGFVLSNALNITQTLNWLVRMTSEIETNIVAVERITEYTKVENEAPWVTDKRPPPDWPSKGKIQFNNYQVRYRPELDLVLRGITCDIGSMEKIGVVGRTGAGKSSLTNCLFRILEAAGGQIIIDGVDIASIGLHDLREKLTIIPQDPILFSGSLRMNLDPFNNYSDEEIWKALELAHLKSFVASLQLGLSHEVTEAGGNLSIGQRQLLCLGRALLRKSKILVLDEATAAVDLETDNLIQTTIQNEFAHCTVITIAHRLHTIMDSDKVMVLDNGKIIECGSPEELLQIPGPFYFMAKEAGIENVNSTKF
T3 sequence (P08684 whole entry): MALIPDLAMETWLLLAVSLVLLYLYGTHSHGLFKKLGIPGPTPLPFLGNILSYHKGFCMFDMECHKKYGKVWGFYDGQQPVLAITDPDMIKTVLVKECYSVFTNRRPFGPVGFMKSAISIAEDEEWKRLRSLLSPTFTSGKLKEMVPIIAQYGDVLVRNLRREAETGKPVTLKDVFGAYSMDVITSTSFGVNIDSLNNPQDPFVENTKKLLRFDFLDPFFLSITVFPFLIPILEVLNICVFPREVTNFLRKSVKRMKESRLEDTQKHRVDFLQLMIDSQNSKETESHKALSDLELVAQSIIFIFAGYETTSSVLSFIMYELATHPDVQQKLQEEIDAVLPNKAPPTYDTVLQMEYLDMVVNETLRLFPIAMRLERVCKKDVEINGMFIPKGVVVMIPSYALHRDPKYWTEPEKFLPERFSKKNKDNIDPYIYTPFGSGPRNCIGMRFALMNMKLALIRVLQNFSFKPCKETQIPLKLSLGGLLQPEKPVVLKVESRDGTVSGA

C[C@H]1CCCC(=O)CCC/C=C/c2cc(O[C@@H]3O[C@H](C(=O)O)[C@@H](O)[C@H](O)[C@H]3O)cc(O)c2C(=O)O1 [Z14GA, Zearalenone-14-glucuronide]
IC50 (human MRP2; Sf9 membrane vesicles, read-out: IC50 for MRP2-mediated CDCF transport): > 10000 nM | IC50 (OATP1A2 [1]; SR101 0.5 μM, 10 min, A431 cells, read-out: IC50 for OATP1A2): > 20000 nM

C[C@H]1CCCC(=O)CCC/C=C/c2cc(OS(=O)(=O)O)cc(O)c2C(=O)O1 [Z14S, zearalenone-14-sulfate]
effect on MRP2-dependent transport of CDCF (human MRP2; 0–50 μM): weak inhibitory effect | IC50 (OATP1A2 [1]): 1400 nM | decrease in OATP1A2 transport activity (OATP1A2 [1]; 20 μM, SR101 substrate, A431 cells): 80–100%

C[C@H]1CCCC(=O)CCC/C=C/c2cc(O)cc(O)c2C(=O)O1 [ZEN, Zearalenone]
IC50 (CYP3A4): 2000 nM | IC50 (OATP1A2 [2]): 2300 nM
